Source: patent US4329460A, “Uracil derivatives and production thereof” (Takeda Chemical Industries, Ltd., priority 1976, dated 1982)
Values after ≈ are worked out from the molar mass of the structure shown.

Columns and labels:
leukemia P 388 = assay: life-prolonging effect upon leukemia P 388 in mice; format: in vivo, BDF1 mice; conditions: intraperitoneal, median survival time treated/control
Experimental: (1) The procedure of a test on the life-prolonging effect upon leukemia P 388 in mice
One tenth ml of diluted ascitic fluid containing 1×10^5 cells was implanted in BDF1 mice weighing 18 to 25 g. A suspension of the test-compound is injected intraperitoneally at a constant rate of volume of 0.1 ml/10 g body weight. As the detailed experimental method, the Protocols for Screening Chemical Agents (Geran, R. I., Greenberg, N. H., Macdonald, M. M., Schumacher, A. M., and Abbott, B. J.: Protocols for Screening Chemical Agents and Natural Products against Animal Tumors and Other Biological Systems. Cancer Chemotherapy Rept., 3 (Part 3) 7, 1972) is adopted.
The results are recorded in compliance to the T/C % value calculated on the basis of the median survival time of treated to control animals.

KB cells = assay: Inhibition of KB cell multiplication; format: cell-based; conditions: Homo sapiens, 72 h, cell count on 4th day after seeding, read-out: ED50, inhibition of cell growth
Experimental: (1) Inhibition of KB cell multiplication
2×10^4 cells were suspended in 1 ml of Eagle's Minimal Essential Medium (MEM)+10% fetal calf serum (MEM.10 Fcs) and seeded in a glass dish (d=1.8 cm) containing a round coverslip (d=1.5 cm).
On the first day after seeding, three coverslips (per test group) were taken out and transferred to a single glass dish (d=4.5 cm) holding 5 ml of MEM.10 Fcs containing a verying concentration of the compound. On the 4th day after seeding, the number of cells per coverslip (3 slips for each concentration level) was determined with a Coulter counter. The result was expressed in the concentration of the drug giving a cell count of 50% (ED50) with the average number of cells for the control (not medicated) group on the 4th day being taken as 100%.

BAV3-infected C34 cells = assay: Inhibition of the induction of cell multiplication in BAV3-infected C34 cells; format: cell-based; conditions: Mus musculus, 96 h, (V-M) difference on 6th day after seeding, read-out: ED50, inhibition of cell growth
Experimental: (2) Inhibition of the induction of cell multiplication in BAV3-infected C34 cells
1×10^5 cells were suspended in 1 ml of Eagle's MEM+10% fetal calf serum (MEM.10 Fcs) and seeded in a glass dish (d=1.8 cm) containing a round coverslip (d=1.5 cm).
On the 2nd day after seeding, infection (37° C., 120 min.) (mock-infection or virus infection; in the case of the latter, multiplicity of infection per cell=100-200 PFU/cell) was carried out. After this operation, one test group (3 coverslips) was taken out and transferred to a glass dish (d=4.5 cm) holding 5 ml of MEM.2 Fcs containing each concentration of compound.
On the 6th day after seeding, the number of cells per coverslip was determined with a Coulter counter. For each experimental group, the difference in all members between virus-infected cells (V) and mock-infected cells (M) was calculated. The result was expressed in the concentration of the drug giving a (V-M) value of 50% (ED50) for the control (not medicated) group as 100%.

AC cells = assay: Inhibition of AC cell multiplication; format: cell-based; conditions: Rattus norvegicus, 72 h, cell count on 3rd day following replacement of medium, read-out: ED50, inhibition of cell growth
Experimental: (3) Inhibition of Ac cell multiplication
1×10^5 AC cells (2 ml of Eagle's MEM, with 10% fetal calf serum were seeded in a Falcon dish (in. diam. 3.5 cm). On the 24th hour, replacement was made with the above culture medium containing a varying concentration of drug. The number of cells was determined on the 3rd day following the replacement of medium. The pharmacologic effect was expressed in ED50 (the concentration of the drug giving a cell count of 50% for the treated group with the number of cells for the control group being taken as 100%.

| Compound | T/C(%) (leukemia P 388; 50 mg/kg/day) | T/C(%) (leukemia P 388; 100 mg/kg/day) | T/C(%) (leukemia P 388; 200 mg/kg/day) | IC50 (KB cells) [µg/mL] | IC50 (BAV3-infected C34 cells) [µg/mL] | IC50 (AC cells) [µg/mL] |
| --- | --- | --- | --- | --- | --- | --- |
| COC(=O)C1(F)C(=O)NC(=O)NC1OC (centres unmarked) [methyl 5-fluoro-6-methoxy-1,2,3,4,5,6-hexahydro-2,4-dioxopyrimidine-5-carboxylate] | 208 | 217 | 243 | 3 (≈ 13.6 µM) | 0.023 (≈ 0.104 µM) | 0.12 (≈ 0.545 µM) |
| CCOC(=O)C1(F)C(=O)NC(=O)NC1OCC (centres unmarked) [ethyl 5-fluoro-6-ethoxy-1,2,3,4,5,6-hexahydro-2,4-dioxopyrimidine-5-carboxylate] | 130 | 143 | 160 | 2.8 (≈ 11.3 µM) | 0.023 (≈ 0.0927 µM) |  |
